We go through three compounds from patent publication EP2815749A1, “Solid form of 4-amino-2-(2,6-dioxopiperidine-3-yl)isoindoline-1,3-dione having specified X-ray diffraction pattern” (IP Gesellschaft für Management mbH, priority 2013, dated 2014).

For series [1] the following is noted: for Stability in water: 2 days at 50°C.
Method: (§2) Hygroscopicity: Sorption/desorption isotherms were measured using the VT1100 humidity microbalance (VTI Corporation, Hialeah, FL, USA). Measurements were carried out at 25°C. Samples were dried under N2 flow at 25°C. […] Concentration in supernatant was measured by gravimetry for organic solvents and by HPLC from aqueous solvents and propylene glycol.
For series [2] the following is noted: for water uptake at 5 % RH: 25°C.
Method: as §2
The conditions of series [3]: 1440 min.
The nature of series [4]: Solid state stability study of Example 1 (hemisulfate salt, Form HI.5-1). It is filed as physicochemical. The procedure: Stability Study: The solid state stability of Example lwas tested by exposing samples to various temperature and relative humidity conditions for periods of 1, 2, and 4 weeks. […] Table 4: Solid State Stability of Hemisulfate Salt, Form HI.5-1 ({drug6b}): […]

Series [5] can be described thus: Moisture sorption isotherm of Example 1. It is filed as physicochemical. Conditions: 25°C. From the text:
Example 1 has moisture sorption weight gains of 0.8 weight % and 2.8 weight % between 25% and 75% relative humidity and 5% and 95% relative humidity, respectively. […] PXRD Peak Positions (degrees 2Θ±0.1):
The hemisulfate salt of Compound (VI) has the surprising advantage of reducing the variability in the bioavailability of Compound (VI) and/or increasing the bioavailability of Compound (VI) to the patient. Based on these in vitro and in vivo data, it is expected that the hemisulfate will provide a significant advantage of consistency in bioavailability among patients over the free form. […] Single Crystal Data (LVL): Data were collected on a Bruker-Nonius CAD4 serial diffractometer. […] Intensities were measured using Cu Ka radiation (λ = 1.5418 A) at a constant temperature with the Θ-2Θ variable scan technique and were corrected only for Lorentz-polarization factors. […] Indexing and processing of the measured intensity data were carried out with the HKL2000 software package (Otwinowski, Z & Minor, W. (1997) in Macromolecular Crystallography, eds. Carter, W.C. Jr. & Sweet, R.M. (Academic, NY), Vol. 276, pp307-326) in the Collect program suite. […] Indexing and processing of the measured intensity data were carried out with the APEX2 software package/program suite (APEX2 Data collection and processing user interface: APEX2 User Manual, v1.27; BRUKER AXS, inc., Madison, WI). […]

Series [6] is described as follows: Stability in water slurry. It is filed as physicochemical. Particulars: room temperature, after two days. The procedure:
(§1) Other Crystalline Forms of Example 1: Form P22C: prepared by heating Form HI.5-1 ({drug6b}) at 60°C for 2 hours or at 75°C for 5 minutes. […] Form P33 ({drug6c}): Form HI.5-1 ({drug6b}) converted to Form P33 ({drug6c}) between 50°C and 75°C in variable temperature PXRD experiment. […] Form P35: Prepared from slurry of Form HI.5-1 ({drug6b}) in dry MeOH under molecular sieves (7% RH). Converted to Form P33 ({drug6c}) when dried at 60°C. Stability in Water Slurry: An aqueous slurry of Example 1 was prepared and stored at room temperature. […] The hemisulfate salt of Compound (VI) has the surprising advantage of providing a salt that is physically stable and chemically stable compared to other salts of Compound (VI). Further, the hemisulfate salt had the surprising advantage of being provided in a stable crystalline form, Form HI.5-1 ({drug6b}).

A short description of series [7]: Water activity studies between crystalline forms. It is filed as physicochemical. The procedure:
as §1

Series [8] is described as follows: In vivo pharmacokinetics of Compound (VI) free base and hemisulfate salt capsules. Particulars: dogs; 150 mg capsule oral; famotidine pretreatment.
Method: An aliquot of 0.050 mL of dog EDTA plasma was used for the assay. […] A 450 µï^ portion of the organic layer was removed and evaporated to dryness. The residue was reconstituted in 300 µl, of the reconstitution solution (30% acetonitrile in 10 mM NH40Ac with 0.01% acetic acid). All liquid transfer steps were performed using a Perkin Elmer JANUS Mini® liquid handler except for the addition of the internal standard solution. A 5 µï^ aliquot of the extracted sample was injected to uHPLC-MS/MS system. The uHPLC was performed on a LEAP 4X Ultra uHPLC system with LEAP HTC PAL autosampler. Mobile phase A contained 10 mM NH4OAc and 0.01% acetic acid in ACN/water (10:90), and mobile phase B contained 10 mM NH4OAc and 0.01% acetic acid in ACN/water (90: 10). […] The flow rate was 0.6 mL/min and column temperature was maintained at 60°C condition. Detection was accomplished using an AB Sciex Triple Quad 5500 mass spectrometer in positive ESI with turbo ion spray ionization and using multiple reaction monitoring (MRM) mode. […] Data acquisition and quantification were performed using AB Sciex Analyst® 1.5.1 software.
Where [9] appears, read: 25 RH/ 60 °C (first such line, r3), 1 week.
The mark [10] stands for this setting: 25 RH/ 60 °C (first such line, r3), 2 weeks.
[11] abbreviates: 25 RH/ 60 °C (first such line, r3), 4 weeks.
Where [12] appears, read: 25 RH/ 60 °C (first such line, r3), Initial.
Setting [13] is: 25 RH/ 60 °C (second such line, r5), 1 week.
Where [14] appears, read: 25 RH/ 60 °C (second such line, r5), 2 weeks.
Where [15] appears, read: 25 RH/ 60 °C (second such line, r5), 4 weeks.
Setting [16] is: 25 RH/ 60 °C (third such line, r6), 1 week.
Where [17] appears, read: 25 RH/ 60 °C (third such line, r6), 2 weeks.
Where [18] appears, read: 25 RH/ 60 °C (third such line, r6), 4 weeks.

Each structure is given as a SMILES string. Where a name gives a salt, the structure may show the parent alone. Read-outs that look alike come from different tables or passages of the source. Where only a bound is given, the exact number is not on record here.

Turning to `N#Cc1ccc([C@H]2CCc3cncn32)c(F)c1` [nitrate salt, 4-(R)-(6,7-dihydro-5H-pyrrolo[1,2-c]imidazol-5-yl)-3-fluoro-benzonitrile], the Stability in water entry in series [1] is reported as “stable”. Further, the “Solubility in water at the 0.1% target concentration” value in series [1] (water) is listed as “soluble”. For the same compound, the “water uptake at 5 % RH” value in series [2] is on record as 0%. For the same compound, the Moisture gain was 0.0% in series [2] (r.h. 0%); 0.0% in series [2] (r.h. 5%); 0.1% in series [2] (r.h. 25%); 0.2% in series [2] (r.h. 50%); 0.2% in series [2] (r.h. 75%); 0.2% in series [2] (r.h. 85%). Also, the Moisture gain in series [2] (r.h. 95%) amounted to 0.2%. Moreover, the solubility (as a rule, how much of the substance goes into solution per volume) in series [3] (pH 1, 25°C) was greater than 50 mg/mL.
With `N#Cc1ccc([C@H]2CCc3cncn32)c(F)c1` [phosphate salt, 4-(R)-(6,7-dihydro-5H-pyrrolo[1,2-c]imidazol-5-yl)-3-fluoro-benzonitrile], in series [1], the Stability in water result is “stable”. Moreover, the “water uptake at 5 % RH” value in series [2] was 0%. In addition, the Moisture gain was 0.0% in series [2] (r.h. 0%); 0.0% in series [2] (r.h. 5%); 0.1% in series [2] (r.h. 25%); 0.1% in series [2] (r.h. 50%); 0.2% in series [2] (r.h. 75%); 0.3% in series [2] (r.h. 85%). The compound also registered a Moisture gain in series [2] (r.h. 95%) of 0.8%. The solubility in series [3] (pH 6.8, 25°C) is greater than 50 mg/mL.
On to `N[C@@H]1c2cccnc2[C@H](OC(=O)N2CCC(n3c(=O)[nH]c4ncccc43)CC2)CC[C@H]1c1cccc(F)c1F` [Example 1, (5S,6S,9R)-5-Amino-6-(2,3-difluorophenyl)-6,7,8,9-tetrahydro-5H-cyclohepta[b]pyridin-9-yl 4-(2-oxo-2,3-dihydro-1H-imidazo[4,5-b]pyridin-1-yl) piperidine-1-carboxylate, Hemisulfate Salt], for which the “% pot.” value was found to be 94.4% in series [4] (setting [9]); 96.8% in series [4] (setting [10]); 96.9% in series [4] (setting [11]); 98.5% in series [4] (setting [12]); 95.1% in series [4] (setting [13]); 98.5% in series [4] (setting [14]). The “% pot.” value was determined as 97.0% in series [4] (setting [15]); 101.6% in series [4] (setting [16]); 102.6% in series [4] (setting [17]); 110.0% in series [4] (setting [18]); 100.7% in series [4] (HIL/UV, 1 week); 96.9% in series [4] (HIL/UV, 2 weeks). Moreover, the “% pot.” value turned out to be 98.0% in series [4] (Refrigerated, 1 week); 96.5% in series [4] (Refrigerated, 2 weeks); 105.7% in series [4] (Refrigerated, 4 weeks); 98.5% in series [4] (Refrigerated, Initial). For the same compound, the “% total imp.” value in series [4] (setting [9]), in series [4] (setting [10]), in series [4] (setting [11]), in series [4] (setting [12]), in series [4] (setting [13]) and in series [4] (setting [14]) was 0.27% each time. Moreover, the “% total imp.” value is on record as 0.27% in series [4] (setting [15]); 0.28% in series [4] (setting [16]); 0.27% in series [4] (setting [17]); 0.27% in series [4] (setting [18]); 0.27% in series [4] (HIL/UV, 1 week); 0.27% in series [4] (HIL/UV, 2 weeks). The “% total imp.” value in series [4] (Refrigerated, 1 week) stood at 0.29%; in series [4] (Refrigerated, 2 weeks), 0.27%; in series [4] (Refrigerated, 4 weeks), 0.27%; in series [4] (Refrigerated, Initial) it was 0.27%. Besides, the Solid state stability entry in series [4] (various temperature and relative humidity conditions, up to four weeks of storage) is “stable”. In addition, the “moisture sorption weight gain” value is listed as 2.8 weight % in series [5] (between 5% and 95% relative humidity); 0.8 weight % in series [5] (between 25% and 75% relative humidity). Besides, the “Chemical degradation in aqueous slurry” value in series [6] is on record as “no significant chemical degradation”. The “PXRD pattern after aqueous slurry” value in series [6] is given as “no change in the PXRD pattern”. In addition, the “Relative stability (water activity)” value in series [7] (versus Form P22C) and in series [7] (versus Form P33) was “more stable at > 23% relative humidity” in each case. Further, in series [8], the “BA Mean” value worked out at 34.73%.
